How the values were obtained:
DSS colitis = experiment: Mouse model of DSS colitis; type: in vivo
Experimental: Mouse model of DSS colitis. WT or Ella/hyal1 mice provided 3% DSS in their drinking water for 7 days and body weight measured every day. For HA digestion by PEGPH20, Mice were intravenously injected PEGPH20 (10 mg/kg) every 3 days 24 hour prior to start DSS water feeding. For Adipogenesis inhibition by PPARg inhibitor, Mice were intraperitonealy injected 120 mg/kg every single day 48 hour prior to start DSS water feeding. Mice were sacrificed after 5 and 7 days. Distal colon, mesenteric fat and blood were collected for RNA, Bacterial culture assay and toxin analysis.
(§1) Reverse transcription-quantitative PCR (RTqPCR) analyses. RTqPCR was used to determine the mRNA abundance. Total cellular RNA was extracted using the PureLink RNA Mini Kit(Life Technologies Corporation, Grand Island, N.Y.) and mRNA were purified by using Dynabeads mRNA Purification Kit(Life technologies). 100 ng of mRNA was reverse transcribed to cDNA using iScript cDNA synthesis kit (BIO-RAD LABORATORIES, INC, Hercules, Calif.). Quantitative, real-time PCR was performed on the CFX96 real time system (Biorad) using predeveloped Taqman gene expression assay (Applied Biosystems). The expression of βActin gene was used as a house keeping gene to normalize data.
(§2) Histology and immunohistochemistry (IHC). Tissue biopsies were directly embedded in OCT compound or paraffin. Paraffin embedded tissues are used for Hematoxylin/Eosin (H&E) staining, and frozen sections were fixed in 4% PFA for 20 mins or 100% Aceton prior to immunofluorescence staining. For IHC, fixed and permeabilized tissue sections were blocked with Image-iT FX reagent (invitrogen) before incubating with primary antibodies followed by appropriate 488- or 568-coupled secondary antibodies. Nuclei were counterstained with DAPI. All images were taken with an Olympus BX41 microscope (widefield) or Zeiss LSM510 confocal microscope as indicated.
Flow cytometry analyses. Colon collected from control or DSS-treated mice was cut into small pieces then digested with 2.5 mg/mL Collagenase D and 30 ng/mL DNAse1 for 2 hours at 37° C. then filtered through a 30 μm filter to generate single cell suspension for FACS analyses. Cells were then stained with zombie violet viability dye (BioLegend, 423114), blocked with anti-mouse CD16/32 (eBioscience, 14016185), followed by staining with antibody cocktails for preadipocytes or immune cells. The antibody cocktail for preadipocytes includes AF488-SMA (eBioscience, 53976082), PECy7-CD45 (BioLegend, 147704), PerCy5.5-CD31 (BioLegend, 102522), PE-Thyl (BioLegend, 105308), APC-PDGFRa (eBioscience, 17140181), BV605-SCA1 (BioLegend, 108133) and AF700-CD24 (BioLegend, 108136). The antibody cocktail for immune cells includes PECy7-CD11b (BioLegend, 101216), FITC-Ly6G (eBioscience, 11593182), PE-F4/80 (eBioscience,12480182), APC-CD11C (BioLegend, 117310), AF700-MHCII (eBioscience, 56532182) and APC-Cy7-CD3 (BioLegend, 100222). FACS analyses for surface expression of preadipocyte or immune cell markers were performed by the BD FACSCanto RUO machine and analyzed by FlowJo V10 software. Dead cells stained positive with zombie violet dye were excluded from the analyses.
Serum Endotoxin analyses. Mouse serum was separated from mouse whole blood using serum separator tubes (Becton, Dickinson and Company). Mouse serum Endotoxin levels were quantified by ToxinSensor Chromogenic LAL Endotoxin Assay Kit (GenScript).
Hyaluronan (HA) analysis. Glucosaminoglycan (GAG) including HA were extracted from 3T3L1 supernatant and Murine skin and colon. Samples were homogenized and treated overnight with protease (0.16 mg/ml; Sigma-Aldrich) to degrade protein, followed by purification by anion exchange chromatography using DEAE sephacel (Amersham Biosciences). Columns were washed with a low-salt buffer (0.15 M NaCl in 20 mM sodium acetate; pH 6.0) and eluted with 1 M NaCl. Glycans were desalted by PD10 (GE Healthcare). HA concentration were measured ELISA Duo Set (R&D Systems). […]

[1] = mouse, in vivo
[2] = system: mouse preadipocytes (3T3L1); experiment: In vitro adipocyte differentiation of 3T3L1 preadipocytes; type: cell-based
Experimental: Preadipocyte culture. The preadipocyte cell line 3T3-L1 was purchased from ATCC (CL-173) lot 59239597. 3T3-L1 cells were grown in preadipocyte proliferation medium stock (Cell applications, San Diego, Calif.), and P4˜P7 cells were used for in vitro differentiation. To induce differentiation, two days post-confluent 3T3-L1 cells were switched to adipocyte differentiation medium containing insulin, dexamethasone, and IBMX. (Cell applications, San Diego, Calif.), and medium was changed to fresh medium at day 2 and 4. To generate differentiated adipocytes for comparison studies between 3T3-L1 preadipocytes and adipocytes, 3T3-L1 cells were differentiated for 3 days followed by two days culture in Preadipocyte growth media. (Cell applications, San Diego, Calif.) before RNA or protein extraction.
as §1
Hyaluronan (HA) analysis. Glucosaminoglycan (GAG) including HA were extracted from 3T3L1 supernatant and Murine skin and colon. Samples were homogenized and treated overnight with protease (0.16 mg/ml; Sigma-Aldrich) to degrade protein, followed by purification by anion exchange chromatography using DEAE sephacel (Amersham Biosciences). Columns were washed with a low-salt buffer (0.15 M NaCl in 20 mM sodium acetate; pH 6.0) and eluted with 1 M NaCl. Glycans were desalted by PD10 (GE Healthcare). HA concentration were measured ELISA Duo Set (R&D Systems). The size distribution of HA was analyzed by agarose gel electrophoresis 41. The HA sample was mixed with TAE buffer containing 2 M sucrose and electrophoresed at 2 V/cm for 10 hours at room temperature. The gel was stained overnight under light-protective cover at room temperature in a solution containing 0.005% Stains-All in 50% ethanol, and destained in water. Hyalose ladders (Hyalose) were used for standards.

[3] = system: S. aureus strain USA300/MRSA skin infection; experiment: Mouse model of S. aureus skin infection; type: in vivo
Experimental: Mouse model of S. aureus skin infection. Staphylococcus aureus strain USA300/MRSA was used for infection. Briefly, the backs of sex-matched and age-matched adult wildtype or Ella/Hyal1 mice were shaved and hair removed by chemical depilation (Nair) then injected subcutaneously with 100 μl of a mid-logarithmic growth phase of S. aureus (2×10^6 CFU of bacteria) in PBS. Mice were sacrificed after day 3 and 8 mm skin punch biopsy comprising the center of the injection site was harvested. Infected skin surrounding the infection center (6˜8 mm) avoid of center abscess was carefully dissected out for RNA extraction or CFU determination. Skin biopsies were homogenized in 1 ml Trizol (for RNA) or PBS (for CFU counting) with 2 mm zirconia beads in a mini-bead beater 16 (Biospect, Bartlesville, Okla.). To count CFU, homogenized skin samples were serially diluted, plated onto Tryptic Soy Agar, and enumerated after 18 hours to quantify the CFU per gram of tissue. For some experiments, PEGPH20(10 mg/kg) was injected intravenously starting from 1 day prior to infection, and vehicle (10 mmol/L histidine, 130 mmol/L NaCl at pH 6.5) was used as control.
as §1, §2

[4] = BADGE compared with hyaluronidase
[5] = 3T3L1 differentiation, 20 ug/ml PEGPH20

Row | Molecule | magnitude of inhibition of inflammation of the colon (DSS colitis; [4]) | preventing DSS induced colon injury (colon length, histology, microbial translocation) (DSS colitis; [4]) | expression of TNFα in colon (DSS colitis; DSS colitis, BADGE 120 mg/kg intraperitoneally every day from 48 hour prior to DSS) | Pref-1 expression in the colon (DSS colitis; PPARg inhibitor) | effect on health or behavior of mice [1] | lipid droplets within cells (Bodipy) ([2]; 3T3L1, day 2 of differentiation, 20 ug/ml PEGPH20) | expression of Zfp521 mRNA [2, 5] | expression of adiponectin (Adipoq) mRNA [2, 5] | expression of antimicrobial peptide cathelicidin (Camp) [2, 5] | expression of zfp423 mRNA ([2]; adipocyte differentiation with added hyaluronidase) | adipogenesis / adipocyte differentiation in vitro ([2]; cultured preadipocytes) | decrease in body weight (DSS colitis; 3% DSS, by day 5) | expression of tumor necrosis factor alpha (TNFα) in colon (DSS colitis; DSS colitis, hyaluronidase delivery, vs control colitis group) | gross inflammatory response of the colon to DSS (DSS colitis; mouse, in vivo) | lesion size ([3]; S. aureus skin infection) | expression of Camp ([3]; infected skin) | expression of IL-6 ([3]; infected skin) | gross inflammatory response of the skin to infection ([3]; mouse, in vivo)
1 | CC(C)(c1ccc(OCC2CO2)cc1)c1ccc(OCC2CO2)cc1 (stereo not drawn) [BADGE, Bisphenol A diglycidyl ether] | less | lesser effect than hyaluronidase | inhibited expression | inhibited |  |  |  |  |  |  |  |  |  |  |  |  |  | 
2 | hyaluronidase |  |  |  |  | No effect | decreased lipid droplets | decreased mRNA | decreased mRNA | decreased | decreased mRNA | inhibited adipocyte differentiation | lesser decrease in body weight | decreased expression | significant decrease | decreased lesion size | decreased | decreased expression | significant decrease
